# Experiments:
# Format in all cases: functional
# Settings in all cases: values are per cent of control
# OVCAR-3 = assay: Antiproliferative activity against human OVCAR-3 cells at 10 uM assessed as cell growth inhibition relative to control
# OVCAR-8 = assay: Antiproliferative activity against human OVCAR8 cells at 10 uM assessed as cell growth inhibition relative to control
# SK-OV-3 = assay: Antiproliferative activity against human SKOV3 cells at 10 uM assessed as cell growth inhibition relative to control
# MOLT-4 = assay: Antiproliferative activity against human MOLT4 cells at 10 uM assessed as cell growth inhibition relative to control
# IGROV-1 = assay: Antiproliferative activity against human IGROV1 cells at 10 uM assessed as cell growth inhibition relative to control
# DU-145 = assay: Antiproliferative activity against human DU145 cells at 10 uM assessed as cell growth inhibition relative to control
# BT-549 = assay: Antiproliferative activity against human BT549 cells at 10 uM assessed as cell growth inhibition relative to control
# EKVX = assay: Antiproliferative activity against human EKVX cells at 10 uM assessed as cell growth inhibition relative to control
# M14 = assay: Antiproliferative activity against human M14 cells at 10 uM assessed as cell growth inhibition relative to control
# HCT-116 = assay: Antiproliferative activity against human HCT116 cells at 10 uM assessed as cell growth inhibition relative to control
# NCI-H522 = assay: Antiproliferative activity against human NCI-H522 cells at 10 uM assessed as cell growth inhibition relative to control
# NCI-H23 = assay: Antiproliferative activity against human NCI-H23 cells at 10 uM assessed as cell growth inhibition relative to control
# SK-MEL-28 = assay: Antiproliferative activity against human SK-MEL-28 cells at 10 uM assessed as cell growth inhibition relative to control
# Malme-3M = assay: Antiproliferative activity against human MALME-3M cells at 10 uM assessed as cell growth inhibition relative to control
# NCI-H322M = assay: Antiproliferative activity against human NCI-H322M cells at 10 uM assessed as cell growth inhibition relative to control
# CCRF-CEM = assay: Antiproliferative activity against human CCRF-CEM cells at 10 uM assessed as cell growth inhibition relative to control
# LOX IMVI = assay: Antiproliferative activity against human LOXIMVI cells at 10 uM assessed as cell growth inhibition relative to control
# COLO 205 = assay: Antiproliferative activity against human COLO205 cells at 10 uM assessed as cell growth inhibition relative to control
# PC-3 = assay: Antiproliferative activity against human PC3 cells at 10 uM assessed as cell growth inhibition relative to control
# T47D = assay: Antiproliferative activity against human T47D cells at 10 uM assessed as cell growth inhibition relative to control
# HL-60(TB) = assay: Antiproliferative activity against human HL-60(TB) cells at 10 uM assessed as cell growth inhibition relative to control
# UO-31 = assay: Antiproliferative activity against human UO31 cells at 10 uM assessed as cell growth inhibition relative to control
# HOP-92 = assay: Antiproliferative activity against human HOP92 cells at 10 uM assessed as cell growth inhibition relative to control
# HCC 2998 = assay: Antiproliferative activity against human HCC2998 cells at 10 uM assessed as cell growth inhibition relative to control
# TK-10 = assay: Antiproliferative activity against human TK10 cells at 10 uM assessed as cell growth inhibition relative to control
# A549 = assay: Antiproliferative activity against human A549 cells at 10 uM assessed as cell growth inhibition relative to control
# MDA-MB-468 = assay: Antiproliferative activity against human MDA-MB-468 cells at 10 uM assessed as cell growth inhibition relative to control
# NCI-H226 = assay: Antiproliferative activity against human NCI-H226 cells at 10 uM assessed as cell growth inhibition relative to control
# ACHN = assay: Antiproliferative activity against human ACHN cells at 10 uM assessed as cell growth inhibition relative to control
# UACC-257 = assay: Antiproliferative activity against human UACC257 cells at 10 uM assessed as cell growth inhibition relative to control
# SNB-19 = assay: Antiproliferative activity against human SNB19 cells at 10 uM assessed as cell growth inhibition relative to control
# U-251 = assay: Antiproliferative activity against human U251 cells at 10 uM assessed as cell growth inhibition relative to control
# UACC-62 = assay: Antiproliferative activity against human UACC62 cells at 10 uM assessed as cell growth inhibition relative to control
# K562 = assay: Antiproliferative activity against human K562 cells at 10 uM assessed as cell growth inhibition relative to control
# SF-539 = assay: Antiproliferative activity against human SF539 cells at 10 uM assessed as cell growth inhibition relative to control
# SF-268 = assay: Antiproliferative activity against human SF268 cells at 10 uM assessed as cell growth inhibition relative to control
# HOP-62 = assay: Antiproliferative activity against human HOP62 cells at 10 uM assessed as cell growth inhibition relative to control
# MDA-MB-231 = assay: Antiproliferative activity against human MDA-MB-231 cells at 10 uM assessed as cell growth inhibition relative to control
# OVCAR-5 = assay: Antiproliferative activity against human OVCAR5 cells at 10 uM assessed as cell growth inhibition relative to control
# SW-620 = assay: Antiproliferative activity against human SW620 cells at 10 uM assessed as cell growth inhibition relative to control
# SK-MEL-2 = assay: Antiproliferative activity against human SK-MEL-2 cells at 10 uM assessed as cell growth inhibition relative to control
# 786-0 = assay: Antiproliferative activity against human 786-0 cells at 10 uM assessed as cell growth inhibition relative to control
# SNB-75 = assay: Antiproliferative activity against human SNB75 cells at 10 uM assessed as cell growth inhibition relative to control
# SK-MEL-5 = assay: Antiproliferative activity against human SK-MEL-5 cells at 10 uM assessed as cell growth inhibition relative to control
# [1] = Antiproliferative activity against human Hs 578T cells at 10 uM assessed as cell growth inhibition relative to control
# SF-295 = assay: Antiproliferative activity against human SF295 cells at 10 uM assessed as cell growth inhibition relative to control
# NCI-H460 = assay: Antiproliferative activity against human NCI-H460 cells at 10 uM assessed as cell growth inhibition relative to control
# MCF7 = assay: Antiproliferative activity against human MCF7 cells at 10 uM assessed as cell growth inhibition relative to control
# [2] = Antiproliferative activity against human […] cells at 10 uM assessed as cell growth inhibition relative to control
# HT-29 = assay: Antiproliferative activity against human HT-29 cells at 10 uM assessed as cell growth inhibition relative to control
# RXF 393 = assay: Antiproliferative activity against human RXF393 cells at 10 uM assessed as cell growth inhibition relative to control
# CAKI-1 = assay: Antiproliferative activity against human Caki1 cells at 10 uM assessed as cell growth inhibition relative to control
# HCT-15 = assay: Antiproliferative activity against human HCT15 cells at 10 uM assessed as cell growth inhibition relative to control
# OVCAR-4 = assay: Antiproliferative activity against human OVCAR4 cells at 10 uM assessed as cell growth inhibition relative to control
# SN12C = assay: Antiproliferative activity against human SN12C cells at 10 uM assessed as cell growth inhibition relative to control
# KM12 = assay: Antiproliferative activity against human KM12 cells at 10 uM assessed as cell growth inhibition relative to control
smiles,measurement,setting,value
CNC(=O)NC[C@H]1O[C@@H](n2cnc3c(NC(=O)Nc4ccccc4)ncnc32)[C@H](O[Si](C)(C)C(C)(C)C)[C@@H]1O[Si](C)(C)C(C)(C)C,"growth, % of control at 10 µM",OVCAR-3,-29%
same,"growth, % of control at 10 µM",OVCAR-8,33%
same,"growth, % of control at 10 µM",SK-OV-3,78%
same,"growth, % of control at 10 µM",MOLT-4,24%
same,"growth, % of control at 10 µM",IGROV-1,53%
same,"growth, % of control at 10 µM",DU-145,52%
same,"growth, % of control at 10 µM",BT-549,40%
same,"growth, % of control at 10 µM",EKVX,23%
same,"growth, % of control at 10 µM",M14,33%
same,"growth, % of control at 10 µM",HCT-116,0%
same,"growth, % of control at 10 µM",NCI-H522,46%
same,"growth, % of control at 10 µM",NCI-H23,36%
same,"growth, % of control at 10 µM",SK-MEL-28,60%
same,"growth, % of control at 10 µM",Malme-3M,49%
same,"growth, % of control at 10 µM",NCI-H322M,87%
same,"growth, % of control at 10 µM",CCRF-CEM,43%
same,"growth, % of control at 10 µM",LOX IMVI,13%
same,"growth, % of control at 10 µM",COLO 205,-100%
same,"growth, % of control at 10 µM",PC-3,8%
same,"growth, % of control at 10 µM",T47D,14%
same,"growth, % of control at 10 µM",HL-60(TB),24%
same,"growth, % of control at 10 µM",UO-31,48%
same,"growth, % of control at 10 µM",HOP-92,-3%
same,"growth, % of control at 10 µM",HCC 2998,-1%
same,"growth, % of control at 10 µM",TK-10,34%
same,"growth, % of control at 10 µM",A549,23%
same,"growth, % of control at 10 µM",MDA-MB-468,36%
same,"growth, % of control at 10 µM",NCI-H226,49%
same,"growth, % of control at 10 µM",ACHN,21%
same,"growth, % of control at 10 µM",UACC-257,43%
same,"growth, % of control at 10 µM",SNB-19,76%
same,"growth, % of control at 10 µM",U-251,17%
same,"growth, % of control at 10 µM",UACC-62,42%
same,"growth, % of control at 10 µM",K562,34%
same,"growth, % of control at 10 µM",SF-539,33%
same,"growth, % of control at 10 µM",SF-268,36%
same,"growth, % of control at 10 µM",HOP-62,62%
same,"growth, % of control at 10 µM",MDA-MB-231,38%
same,"growth, % of control at 10 µM",OVCAR-5,69%
same,"growth, % of control at 10 µM",SW-620,36%
same,"growth, % of control at 10 µM",SK-MEL-2,57%
same,"growth, % of control at 10 µM",786-0,17%
same,"growth, % of control at 10 µM",SNB-75,46%
same,"growth, % of control at 10 µM",SK-MEL-5,48%
same,"growth, % of control at 10 µM",[1],61%
same,"growth, % of control at 10 µM",SF-295,45%
same,"growth, % of control at 10 µM",NCI-H460,-7%
same,"growth, % of control at 10 µM",MCF7,0%
same,"growth, % of control at 10 µM",[2],20%
same,"growth, % of control at 10 µM",HT-29,-68%
same,"growth, % of control at 10 µM",RXF 393,-37%
same,"growth, % of control at 10 µM",CAKI-1,60%
same,"growth, % of control at 10 µM",HCT-15,21%
same,"growth, % of control at 10 µM",OVCAR-4,30%
same,"growth, % of control at 10 µM",SN12C,-79%
same,"growth, % of control at 10 µM",KM12,-4%

# Reference: ChEMBL document CHEMBL1154382, “Preliminary SAR analysis of novel antiproliferative N(6),5'-bis-ureidoadenosine derivatives” (2009)
